Experimental data reported in article PMC11540889, “In Vitro Cytotoxicity of Fluorinated Quaternary Ammonium Salts in Colorectal Cancer Cells and In Silico Pharmacology” (Advances in Pharmacological and Pharmaceutical Sciences, 2024).
Where two headings read alike, the source gives them in different places.

How the values were obtained:
[1] = tested on: SW948 (Dukes' Type C, Grade III, premetastatic colorectal adenocarcinoma); assay: MTT cytotoxicity, SW948 cells; conditions: for CC50: SW948 cells, MTT, 48 h, mean ± SD; for Index of selectivity MCRT / SW948: IS = CC50 MCRT ÷ CC50 SW948; for Index of selectivity PBMC / SW948: IS = CC50 PBMC ÷ CC50 SW948
Procedure: (§1) The compounds were solubilized in dimethyl sulfoxide (DMSO, Fischer Chemical, NJ, USA) at 50,000 μg/mL and stored at −20°C until use. From the stock solution, six serial 1:2 double dilutions of each compound were prepared to start with concentrations of 100, 50, 25, 12.5, 6.25, and 3.125 μg/mL, respectively. 5-FU, one of the conventional drugs to treat CRC [34], was used as an antitumor compound control at concentrations ranging between 800 and 0.625 μM.
(§2) SW948 (Dukes' Type C, Grade III, premetastatic colorectal adenocarcinoma—CCL-237), SW48 (Dukes' Type C, Grade IV, noninvasive colorectal adenocarcinoma—CCL231), and SW620 (Dukes' Type C, Grade IV invasive colorectal adenocarcinoma—CCL227) (American Type Culture Collection Manassas, VA, USA) were maintained in standard conditions at 37°C, without a CO2 atmosphere. PBMCs and MCRT were used as nontumoral control cells. PBMCs were obtained by healthy donors, separated using Histopaque-1077 (Sigma-Aldrich) and cultured in RPMI-1640 medium (Sigma-Aldrich) supplemented with 10% SFB and 1% penicillin/streptomycin [46]. In turn, MCRT were obtained from healthy BALB/c mice; for this, mice were euthanized with CO2 after previous sedation, the colorectal tissue removed, cleaned up, and cut into 2 × 2 mm pieces, suspended in supplemented DMEM, and used immediately after collection. […] Moreover, the inclusion of PBMC also served to assess the systemic toxicity of FQAS.
(§3) The cytotoxic activity of synthesized FQASs and QASs was studied by measuring cell viability/mortality, determined with the MTT (3-(4,5-dimethylthiazol-2-yl)-2,5-diphenyl tetrazole bromide) method (VWR Chemicals and Reagents Avantor), upon exposure of each cell line to six serial dilutions of the different compounds independently. Unexposed cells were included as viability controls, and cells exposed to 5-FU were included as cytotoxicity controls. Briefly, cells were adjusted to 200,000 cells/mL in the corresponding supplemented culture medium, and 100 μL (20,000 cells/well) were dispensed into each 96-well cell culture plate (Nunc, Thermo Fisher Scientific). Twelve hours after seeding the monolayer, 100 μL dilution of each compound was added to each well; the plates containing CRC were incubated at 37°C in the absence of CO2, while plates with PBMCs and MCRT were incubated at 37°C and 5% CO2 atmosphere. For MCRT, each piece was placed into each well of a 96-well plate and exposed to each dilution of the FQASs and QASs. After 48 h of incubation, 30 μL/well of MTT (5 mg/mL) was added, and plates were left at 37°C for 3 h, protected from light. After this time, 100 μL/well of DMSO was added to solubilize the formazan crystals formed. Plates were read at 570 nm on a Varioskan plate reader (Thermo Fisher), and nonspecific absorbance was corrected by subtracting the optical densities (OD) of the blank solutions corresponding to the supplemented culture media (RPMI 1640, DMEM, or L-15 media) and 0.5% DMSO. Each concentration of the FQASs, QASs, and controls was evaluated in duplicate in three independent experiments.
(§4) The percentages of viability (equation (1)) and mortality (equation (2)) were calculated with the net OD:(1) % viability=OD treated cell÷nontreated cells×100, (2) % mortality=100−% viability.
(§5) The %mortality data for each compound concentration was recorded, and the median cytotoxic concentration (CC50), corresponding to the concentration at which 50% of cell death occurs, was calculated using GraphPad Prism 8 software (GraphPad, Software, Inc., La Jolla, CA, USA). […] Lastly, the index of selectivity (IS) was calculated by dividing the CC50 value obtained for control cells (MCRT and PBMCs) by the CC50 value obtained for each CRC cell phenotype using the formula: IS = CC50 (MCRT or PBMC) ÷ CC50 (SW948, SW48 or SW620).

[2] = tested on: SW48 (Dukes' Type C, Grade IV, noninvasive colorectal adenocarcinoma); assay: MTT cytotoxicity, SW48 cells; conditions: for CC50: SW48 cells, MTT, 48 h, mean ± SD; for Index of selectivity MCRT / SW48: IS = CC50 MCRT ÷ CC50 SW48; for Index of selectivity PBMC / SW48: IS = CC50 PBMC ÷ CC50 SW48
Procedure: as §1, §2, §3, §4, §5

[3] = tested on: SW620 (Dukes' Type C, Grade IV invasive colorectal adenocarcinoma); assay: MTT cytotoxicity, SW620 cells; conditions: for CC50: Homo sapiens; for Index of selectivity MCRT / SW620: IS = CC50 MCRT ÷ CC50 SW620; for Index of selectivity PBMC / SW620: IS = CC50 PBMC ÷ CC50 SW620
Procedure: as §1, §2, §3, §4, §5

[4] = Ex vivo MTT cytotoxicity, healthy murine colorectal tissue; format: cell-based, BALB/c mice; conditions: BALB/c, mouse, healthy murine colorectal tissue (MCRT) pieces, ex vivo, nontumoral control, MTT, 48 h, mean ± SD
Procedure: as §1, §2, §3, §4, §5

[5] = MTT cytotoxicity, peripheral blood mononuclear cells; format: cell-based; conditions: human, peripheral blood mononuclear cells (PBMC); PBMC, nontumoral control, MTT, 48 h, mean ± SD
Procedure: as §1, §2, §3, §4, §5

[6] = tested on: CRC cell lines SW48, SW620, and SW948; assay: MTT cytotoxicity across CRC cell lines (pooled statements, selectivity between lines); format: cell-based; conditions: for Index of selectivity SW48 vs. SW620: IS = CC50 SW48 ÷ CC50 SW620; for Index of selectivity SW948 vs. SW48: IS = CC50 SW948 ÷ CC50 SW48; for Index of selectivity SW948 vs. SW620: IS = CC50 SW948 ÷ CC50 SW620
Procedure: as §1, §2, §3, §4
The %mortality data for each compound concentration was recorded, and the median cytotoxic concentration (CC50), corresponding to the concentration at which 50% of cell death occurs, was calculated using GraphPad Prism 8 software (GraphPad, Software, Inc., La Jolla, CA, USA). […]

SMILES	CC50 ([1]; Homo sapiens, SW948, 48 h)	Index of selectivity MCRT / SW948 [1]	Index of selectivity PBMC / SW948 [1]	CC50 ([2]; Homo sapiens, SW48, 48 h)	Index of selectivity MCRT / SW48 [2]	Index of selectivity PBMC / SW48 [2]	CC50 ([3]; 48 h)	Index of selectivity MCRT / SW620 [3]	Index of selectivity PBMC / SW620 [3]	CC50 at 48 h [4]	CC50 at 48 h [5]	Index of selectivity SW48 vs. SW620 [6]	Index of selectivity SW948 vs. SW48 [6]	Index of selectivity SW948 vs. SW620 [6]	other results
C[N+](C)(C)CCCC=C(c1cccc(F)c1)c1cccc(F)c1 [Compound 1]	211 ± 7.4 µM	1.0	0.1	105 ± 12 µM	2.0	0.3	63.7 ± 15.3 µM	3.3	0.5	212 ± 4 µM	29.8 ± 2.4 µM	1.7	2.0	3.3	–
C[N+](C)(CI)CCCC=C(c1ccc(F)cc1)c1ccc(F)cc1 [Compound 2]	77.9 ± 9.1 µM	2.6	0.5	75.7 ± 14.2 µM	2.7	0.47	–	7.3	1.3	205 ± 14.5 µM	35.6 ± 6.6 µM	2.7	1.0	2.8	CC50 ([3]; SW-620, read-out: LC50 (Figure 2c)): 28.1 µM
C[N+](C)(CCl)CCCCC=C(c1ccc(F)cc1)c1ccc(F)cc1 [Compound 3]	52.9 ± 13.8 µM	2.5	0.8	125 ± 5.1 µM	1.0	0.32	64.5 ± 8.1 µM	2.0	0.6	130 ± 20 µM	39.7 ± 7.7 µM	1.9	0.4	0.8	–
C[N+](C)(CI)CCCCC=C(c1ccc(F)cc1)c1ccc(F)cc1 [Compound 4]	72.8 ± 12.8 µM	1.5	0.6	100 ± 3 µM	1.1	0.45	52.5 ± 5.6 µM	2.0	0.9	107 ± 4.5 µM	45.1 ± 7.3 µM	1.9	0.7	1.4	–
O=c1[nH]cc(F)c(=O)[nH]1 [Compound 5-FU, 5-fluorouracil, reference compound]	30.3 ± 5.2 µM	31.2	1.3	30.3 µM	33.9	1.4	30.3 ± 6 µM	31.2	1.3	945 ± 43.7 µM	38.7 ± 7 µM	0.9	1.1	1.0	cytotoxicity level (high/moderate/low) [1]: High; cytotoxicity level (high/moderate/low) [2]: High; cytotoxicity level (high/moderate/low) [3]: High; CC50 ([3]; SW-620): 27.9 µM
C[N+](C)(CCl)CCCC=C(c1cccc(C(F)(F)F)c1)c1cccc(C(F)(F)F)c1 [Compound 5]	24.5 µM	2.8	0.8	43.5 µM	2.3	0.66	24.5 ± 2.3 µM	4.9	1.4	121 ± 5.4 µM	34.8 ± 6 µM	2.1	0.8	1.8	CC50 [1]: 43.5 ± 4 µM; CC50 [2]: 52 ± 9.2 µM; CC50 ([3]; SW-620): 52 µM
C[N+](C)(CI)CCCC=C(c1cccc(C(F)(F)F)c1)c1cccc(C(F)(F)F)c1 [Compound 6]	45.6 ± 3.6 µM	2.8	1.0	55.5 ± 6.4 µM	2.3	0.80	38.8 ± 2.1 µM	3.3	1.2	129 ± 11.3 µM	44.8 ± 6.4 µM	1.4	–	–	–
C[N+](C)(C)CCCC=C(c1cccc(C(F)(F)F)c1)c1cccc(C(F)(F)F)c1 [Compound 7]	20 ± 0.8 µM	6.2	2.3	81.4 ± 9.4 µM	1.5	0.57	31.1 ± 0.2 µM	4.0	1.5	123 ± 9.2 µM	46.3 ± 7.5 µM	2.6	0.2	–	–
C[N+](C)(CCl)CCCC=C(c1ccc(C(F)(F)F)cc1)c1ccc(C(F)(F)F)cc1 [Compound 8]	20.4 ± 6.2 µM	5.0	2.1	50.8 ± 4 µM	2.0	0.8	19.2 ± 3.5 µM	5.3	2.2	102 ± 5 µM	42.3 ± 9.3 µM	2.6	0.4	1.1	–
C[N+](C)(CI)CCCC=C(c1ccc(C(F)(F)F)cc1)c1ccc(C(F)(F)F)cc1 [Compound 9]	20 ± 4.7 µM	10.3	1.5	40.2 ± 6 µM	5.1	0.8	32.2 ± 1 µM	6.4	1.0	206 ± 19.4 µM	30.6 ± 2.1 µM	1.2	0.5	0.6	–
